Source: EPA's CvTdb concentration-time database (doi:10.1093/toxsci/kfy020)

Key:
Test in all cases: concentration in plasma after dosing
[1] = tested on: rat; conditions: male, Sprague-Dawley
[2] = tested on: rat; conditions: dosed: Etoxazole, 2.0000000000 mg/kg, oral, male, Sprague-Dawley
[3] = tested on: rat; conditions: dosed: Etoxazole, 0.4000000000 mg/kg, iv, male, Sprague-Dawley
[4] = tested on: rat; conditions: dosed: Etoxazole, 2.0000000000 mg/kg, oral, male, Sprague-Dawley; remark: listed apart in the source
[5] = tested on: rat; conditions: dosed: Etoxazole, 2.0000000000 mg/kg, oral, male, Sprague-Dawley; remark: listed apart in the source
[6] = tested on: rat; conditions: dosed: Etoxazole, 0.4000000000 mg/kg, iv, male, Sprague-Dawley; remark: listed apart in the source
[7] = tested on: rat; conditions: dosed: Etoxazole, 0.4000000000 mg/kg, iv, male, Sprague-Dawley; remark: listed apart in the source
[8] = tested on: rat; conditions: dosed: Etoxazole, 2.0000000000 mg/kg, oral, male, Sprague-Dawley; remark: listed apart in the source
[9] = tested on: rat; conditions: dosed: Bisphenol A, 0.6000000000 mg/kg, iv, male, Sprague-Dawley
[10] = tested on: rat; conditions: dosed: Bisphenol A, 0.6000000000 mg/kg, iv, male, Sprague-Dawley; remark: listed apart in the source
[11] = tested on: rat; conditions: dosed: Propamocarb hydrochloride, 1.0000000000 mg/kg, iv, male, Sprague-Dawley
[12] = tested on: rat; conditions: dosed: Propamocarb hydrochloride, 1.0000000000 mg/kg, iv, male, Sprague-Dawley; remark: listed apart in the source
[13] = tested on: rat; conditions: dosed: Propamocarb hydrochloride, 5.0000000000 mg/kg, oral, male, Sprague-Dawley
[14] = tested on: rat; conditions: dosed: Propamocarb hydrochloride, 5.0000000000 mg/kg, oral, male, Sprague-Dawley; remark: listed apart in the source
[15] = tested on: rat; conditions: dosed: Propamocarb hydrochloride, 5.0000000000 mg/kg, oral, male, Sprague-Dawley; remark: listed apart in the source
[16] = tested on: rat; conditions: dosed: Resmethrin, 0.8000000000 mg/kg, iv, male, Sprague-Dawley
[17] = tested on: rat; conditions: dosed: Resmethrin, 4.0000000000 mg/kg, oral, male, Sprague-Dawley
[18] = tested on: rat; conditions: dosed: Resmethrin, 0.8000000000 mg/kg, iv, male, Sprague-Dawley; remark: listed apart in the source
[19] = tested on: rat; conditions: dosed: Resmethrin, 4.0000000000 mg/kg, oral, male, Sprague-Dawley; remark: listed apart in the source
[20] = tested on: rat; conditions: dosed: Resmethrin, 4.0000000000 mg/kg, oral, male, Sprague-Dawley; remark: listed apart in the source
[21] = tested on: rat; conditions: dosed: Simazine, 0.4000000000 mg/kg, iv, male, Sprague-Dawley
[22] = tested on: rat; conditions: dosed: Simazine, 0.4000000000 mg/kg, iv, male, Sprague-Dawley; remark: listed apart in the source
[23] = tested on: rat; conditions: dosed: Simazine, 2.0000000000 mg/kg, oral, male, Sprague-Dawley
[24] = tested on: rat; conditions: dosed: Simazine, 2.0000000000 mg/kg, oral, male, Sprague-Dawley; remark: listed apart in the source
[25] = tested on: rat; conditions: dosed: Simazine, 2.0000000000 mg/kg, oral, male, Sprague-Dawley; remark: listed apart in the source
[26] = tested on: rat; conditions: dosed: Simazine, 0.4000000000 mg/kg, iv, male, Sprague-Dawley; remark: listed apart in the source

CCOc1cc(C(C)(C)C)ccc1C1COC(c2c(F)cccc2F)=N1 (configuration not stated) [Etoxazole]
[1], dosed: Etoxazole
Conditions	concentration in plasma [ng/mL]
0.25 h, 2.0000000000 mg/kg, oral	36
0.5 h, 0.4000000000 mg/kg, iv	31.1
0.5 h, 2.0000000000 mg/kg, oral	41.2
1 h, 0.4000000000 mg/kg, iv	14
1 h, 2.0000000000 mg/kg, oral	49.5
2 h, 0.4000000000 mg/kg, iv	3.62
2 h, 2.0000000000 mg/kg, oral	23.7
4 h, 0.4000000000 mg/kg, iv	1.53
4 h, 2.0000000000 mg/kg, oral	8.72
5 min, 0.4000000000 mg/kg, iv	145
8 h, 0.4000000000 mg/kg, iv	0.14
8 h, 2.0000000000 mg/kg, oral	11.7
10 min, 0.4000000000 mg/kg, iv	86.3
12 h, 2.0000000000 mg/kg, oral	1.84
24 h, 2.0000000000 mg/kg, oral	0.61
48 h, 2.0000000000 mg/kg, oral	0.15
72 h, 2.0000000000 mg/kg, oral	0.11

concentration in plasma [ng/mL]
Conditions	[2]	[3]	[4]	[5]	[6]	[7]	[8]
0.25 h	15.1	–	15.8	9.12	–	–	14.6
0.5 h	22.4	20.5	18.5	16.8	60	43.6	23
1 h	29.7	7.3	23.8	25.3	18.9	15.7	33.7
2 h	31.5	2.78	7.62	31	4.7	4.19	24.3
4 h	13.6	1.69	2.16	9.37	0.86	1.89	11.9
5 min	–	78.2	–	–	142	126	–
8 h	5.34	0.69	4.85	–	0.54	0.28	10.3
10 min	–	50.2	–	–	66.8	72.5	–
12 h	1	0.56	1.6	–	–	–	1.45
24 h	0.46	0.3	0.18	–	0.36	–	0.53
48 h	0.2	0.14	–	–	–	–	0.12
72 h	0.16	–	–	–	–	–	0.13

CC(C)(c1ccc(O)cc1)c1ccc(O)cc1 [Bisphenol A]
[1], dosed: Bisphenol A, 0.6000000000 mg/kg, iv
Conditions	concentration in plasma [ng/mL]
0.5 h	85.6
1 h	29.2
5 min	392
10 min	302

concentration in plasma [ng/mL]
Conditions	0.5 h	1 h	5 min	10 min
[9]	60.5	34.5	299	189
[10]	94.3	30.7	310	151

CCCOC(=O)NCCCN(C)C.Cl [Propamocarb hydrochloride]
concentration in plasma [ng/mL]
Conditions	[11]	[12]	[13]	[14]	[15]
0.25 h	62.1	69.3	1.1	2.1	3.5
0.5 h	25.5	35.3	0.7	1.5	1.7
1 h	8.7	11	0.1	0.43	0.4
2 h	0.5	1.7	–	–	–
5 min	103	108	–	–	–

concentration in plasma [ng/mL], [1], dosed: Propamocarb hydrochloride
Conditions	0.25 h	0.5 h	1 h	2 h	5 min
1.0000000000 mg/kg, iv	57.8	26.2	9.6	1	134
5.0000000000 mg/kg, oral	8.1	4.9	1.6	–	–

CC(C)=CC1C(C(=O)OCc2coc(Cc3ccccc3)c2)C1(C)C (configuration not stated) [Resmethrin]
concentration in plasma [ng/mL], [1], dosed: Resmethrin
Conditions	0.25 h	0.5 h	1 h	2 h	4 h	5 min	8 h	10 min
0.8000000000 mg/kg, iv	–	13.9	1.6	8.1	–	72.9	–	30.4
4.0000000000 mg/kg, oral	12.6	37.2	32.8	13.5	13.7	–	6.1	–

concentration in plasma [ng/mL]
Conditions	0.25 h	0.5 h	1 h	2 h	4 h	5 min	8 h	10 min	12 h
[16]	–	9.1	4.1	1	–	52.7	–	25	–
[17]	17.4	15.8	17.7	10.6	4.2	–	4.6	–	–
[18]	–	12.1	0.7	5.6	–	52.5	–	20.6	–
[19]	7	10.7	39	12.8	2.3	–	4.7	–	1.8
[20]	13.4	11.8	44.1	12.4	5.6	–	4	–	–

CCNc1nc(Cl)nc(NCC)n1 [Simazine]
concentration in plasma [ng/mL]
Conditions	0.25 h	0.5 h	1 h	2 h	4 h	5 min	10 min
[21]	–	23.2	4.5	–	–	63.7	60.4
[22]	–	46.6	9.7	1.1	–	52	148
[23]	6.9	5	1	4.6	1	–	–
[24]	68.5	23.2	5	1.2	–	–	–
[25]	10.5	3.7	1.3	2.6	1.5	–	–
[26]	–	34.8	5.3	–	–	127	95.5

concentration in plasma [ng/mL], [1], dosed: Simazine
Conditions	0.25 h	0.5 h	1 h	5 min	10 min
0.4000000000 mg/kg, iv	–	43	3.7	91.6	101
2.0000000000 mg/kg, oral	6.9	2.4	–	–	–
